Legend:
[1] = tested on: A549 human alveolar epithelial cell; assay: Growth inhibition (cytotoxicity), A549 assay, Cell Titer Glo; assay type: cell-based; conditions: A549, 72 h, A549 cells, 72 hour incubation
Procedure: (§1) The cytotoxicity of each of the MC compounds as described herein was evaluated in the following cell types: A549 human alveolar epithelial cell, PC3 human prostate carcinoma cell, COLO205 human colon adenocarcinoma cell, HEPG2 human hepatoma, OVCAR3 human ovary adenocarcinoma cell, and HL60 human acute myelocytic leukemia (AML) cell.
(§2) A549, PC3, COLO205 and HEPG2 cells were cultured in DMEM (Invitrogen Corporation) with 10% fetal bovine serum, whereas OVCAR3 and HL60 were cultured in the same medium but with 20% fetal bovine serum. For cytotoxocoty measurements the cells were seeded in 96 or 384 well tissue culture treated microtitre plates overnight. Compounds were diluted in appropriate buffers and added to the cells the next day. Following a further 72 hour incubation, cell viability was determined using Cell Titer Glo (Promega Corporation) according to the manufacturers' instructions, and the luminescence measured in Luminoskan Ascent (Thermo Fisher Scientific Inc.).

[2] = tested on: HL60 human acute myelocytic leukemia (AML) cell; assay: Growth inhibition (cytotoxicity), HL60A assay, Cell Titer Glo; assay type: cell-based; conditions: HL-60, 72 h, HL60 cells, 72 hour incubation
Procedure: as §1, §2

[3] = tested on: COLO205 human colon adenocarcinoma cell; assay: Growth inhibition (cytotoxicity), COLO205 assay, Cell Titer Glo; assay type: cell-based; conditions: COLO 205, 72 h, COLO205 cells, 72 hour incubation
Procedure: as §1, §2

[4] = tested on: OVCAR3 human ovary adenocarcinoma cell; assay: Growth inhibition (cytotoxicity), OVCAR3 assay, Cell Titer Glo; assay type: cell-based; conditions: OVCAR3 cells, 72 hour incubation
Procedure: as §1, §2

[5] = Microsomal stability assay; assay type: in vitro ADME; conditions: human, human liver microsomes, pH 7.4, human liver microsomes, 50 μm, 37° C.; read-out: T1/2, 50 μm microsomal stability assay
Procedure: 50 μL test sample (50 mM), 25 μL human liver microsomes (20 mg/ml, BD Gentest, catalog no. 452161), 281 μL potassium phosphate buffer (100 mM, pH 7.4), 5 μL NaDPH regenerating system, solution B (BD Biosciences, catalog no. 451200), and 114 μL of water were pre-incubated for 5 min at 37° C. The reaction was initiated by the addition of 25 μL NaDPH regenerating system, solution A (BD Biosciences, catalog no. 451220). After an incubation period of 0, 15, 30, and 60 min at 37° C., 100 μL of the reaction mixture was transferred to an eppendorf tube, followed by addition of 100 μL chilled acetonitrile to quench the reaction. The sample was then centrifuged at 14,000 rpm for 5 min. The supernatant was submitted for LCMS analysis.

[6] = tested on: PC3 human prostate carcinoma cell; assay: Growth inhibition (cytotoxicity), PC3A assay, Cell Titer Glo; assay type: cell-based; conditions: PC-3, 72 h, PC3 cells, 72 hour incubation
Procedure: as §1, §2

[7] = tested on: HEPG2 human hepatoma; assay: Growth inhibition (cytotoxicity), HEPG2A assay, Cell Titer Glo; assay type: cell-based; conditions: HEPG2 cells, 72 hour incubation
Procedure: as §1, §2

Structure (SMILES)	IC50 [1]	IC50 [2]	IC50 [3]	IC50 ([4]; Homo sapiens, OVCAR-3, 72 h)	half-life at 50 μM [5]	IC50 [6]	IC50 [4]	IC50 [7]	IC50 ([7]; Homo sapiens, HepG2, 72 h)
CC[C@H](OC)[C@@H](C)[C@H]1O[C@@H]1C(NCc1ccncc1)C(C)(O)/C=C/C=C(\C)C1OC(=O)C[C@H](O)CC[C@@](C)(O)[C@@H](OC(C)=O)/C=C/[C@@H]1C (stereo partly drawn) [MC-007c]	≤ 1000 nM	≤ 100 nM	≤ 100 nM	–	–	–	–	–	–
CC[C@H](OC)[C@@H](C)[C@H]1O[C@@H]1C(NCc1ccc(F)cc1)C(C)(O)/C=C/C=C(\C)C1OC(=O)C[C@H](O)CC[C@@](C)(O)[C@@H](OC(C)=O)/C=C/[C@@H]1C.O=CO (single isomer, unassigned) [MC-006c]	–	≤ 100 nM	≤ 100 nM	≤ 100 nM	> 30 min	≤ 100 nM	–	–	–
CC[C@H](OC)[C@@H](C)[C@H]1O[C@@H]1C(NCc1ccc(OC)cc1)C(C)(O)/C=C/C=C(\C)C1OC(=O)C[C@H](O)CC[C@@](C)(O)[C@@H](OC(C)=O)/C=C/[C@@H]1C (stereo partly drawn) [MC-005]	–	–	–	≤ 100 nM	20 min	–	61 nM	57 nM	≤ 100 nM
CC[C@H](OC)[C@@H](C)[C@H]1O[C@@H]1C(NCc1ccncc1)C(C)(O)/C=C/C=C(\C)C1OC(=O)C[C@H](O)CC[C@@](C)(O)[C@@H](OC(C)=O)/C=C/[C@@H]1C (single isomer, unassigned) [MC-007b]	≤ 1000 nM	≤ 100 nM	–	–	–	–	–	–	–
CC[C@H](OC)[C@@H](C)[C@H]1O[C@@H]1C(NCc1ccc(Cl)c(Cl)c1)C(C)(O)/C=C/C=C(\C)C1OC(=O)C[C@H](O)CC[C@@](C)(O)[C@@H](OC(C)=O)/C=C/[C@@H]1C (stereo partly drawn) [MC-059]	–	–	≤ 100 nM	≤ 100 nM	–	≤ 100 nM	–	–	≤ 100 nM
CC[C@H](OC)[C@@H](C)[C@H]1O[C@@H]1C(NCc1ccc(Cl)cc1)C(C)(O)/C=C/C=C(\C)C1OC(=O)C[C@H](O)CC[C@@](C)(O)[C@@H](OC(C)=O)/C=C/[C@@H]1C (single isomer, unassigned) [MC-016a]	–	≤ 100 nM	≤ 100 nM	≤ 100 nM	–	≤ 100 nM	–	–	≤ 100 nM

From US20110237566A1, “Therapeutic Macrolide Compounds and Their Use” (MERLION PHARMACEUTICALS PTE LTD, priority 2008, published 2011)
